# Experimental data taken from publication PMC12769565, “Design, synthesis and biological activity of glycoconjugated ADAMTS5 exosite inhibitors: applications in osteoarthritis and ovarian cancer models” (Scientific Reports, 2025).
# Tests used:
# ADAMTS5 = settings: reported zinc-chelating inhibitors; cited from earlier work
# HEK293 = system: HEK293; set-up: method as in ChEMBL; settings: ref ChEMBL, cited from earlier work; for EC50: read-out: EC50 (Standard Value)
# HEK293T cells = test: Cell viability MTS assay; type: cell-based, human; settings: 100 µM; 72 h; vs DMSO control
# Description: (§1) Cell viability was assessed using CellTiter® 96 Aqueous One Solution Cell Proliferation Assay (Promega, G3582) following the manufacturer’s protocol. The assay is based on the reduction of [3-(4,5-dimethylthiazol-2-yl)-5-(3-carboxymethoxyphenyl)-2-(4-sulfophenyl)-2 H-tetrazolium] (MTS) and phenazine ethosulfate into formazan. Compounds 2 and 4b, GM6001 (Merck, 364206) (10–100 µM), or DMSO control were incubated in 48-well Nunc™ plates (Thermo Fisher Scientific,150687) with HEK293T cells, human non-OA chondrocytes, porcine cartilage explants, or human OA cartilage explants for 72 h. At least 3 independent experiments were carried out with 3 technical replicates each. For experiments involving human samples, independent experiments were carried out on 3 different donors. Absorbance at 490 nm was measured on a SpectraMax i3x Multi-Mode Platform (Molecular Devices). Cell viability was normalized to DMSO controls.
# [1] = system: human non-OA chondrocytes; test: Cell viability MTS assay; type: cell-based; settings: 100 µM; 72 h; vs DMSO control
# Description: Non-OA human chondrocytes were isolated from knee cartilage tissues obtained from the Stanmore BioBank, Institute of Orthopaedics, Royal National Orthopaedic Hospital, Stanmore, UK, from 3 donors following informed consent and approval by the Royal Veterinary College Ethics and Welfare Committee (Institutional approval URN 2012 0048 H) as before.
# as §1
# [2] = system: porcine cartilage explants; test: Cell viability MTS assay; type: cell-based, pig; settings: 100 µM; 72 h; vs DMSO control
# Description: Porcine articular cartilage from the joints of 3–9 month old pigs was supplied by a local abattoir within 2 h of slaughter and dissected into small pieces approximately 3 mm long and 3–4 mm wide. Each piece weighed roughly 10 mg. After dissection, the cartilage was allowed to acclimatize for 24 h at 37 °C under 5% CO2 in Dulbecco’s Modified Eagle Medium (DMEM) containing 100 U/ml penicillin, 100 µg/ml streptomycin, 10% fetal bovine serum (FBS).
# as §1
# ADAMTS4 [3] = target: T1, ADAMTS4 (Homo sapiens, UniProt O75173); test: QF peptide cleavage assay (peptidolytic activity); type: biochemical; settings: compared to DMSO control
# T1 construct: Human recombinant full-length FLAG-tagged ADAMTS4 and ADAMTS5 were expressed in HEK293T cells; FLAG; made in house; host or cells: HEK293T cells
# T1 sequence (O75173 213-837): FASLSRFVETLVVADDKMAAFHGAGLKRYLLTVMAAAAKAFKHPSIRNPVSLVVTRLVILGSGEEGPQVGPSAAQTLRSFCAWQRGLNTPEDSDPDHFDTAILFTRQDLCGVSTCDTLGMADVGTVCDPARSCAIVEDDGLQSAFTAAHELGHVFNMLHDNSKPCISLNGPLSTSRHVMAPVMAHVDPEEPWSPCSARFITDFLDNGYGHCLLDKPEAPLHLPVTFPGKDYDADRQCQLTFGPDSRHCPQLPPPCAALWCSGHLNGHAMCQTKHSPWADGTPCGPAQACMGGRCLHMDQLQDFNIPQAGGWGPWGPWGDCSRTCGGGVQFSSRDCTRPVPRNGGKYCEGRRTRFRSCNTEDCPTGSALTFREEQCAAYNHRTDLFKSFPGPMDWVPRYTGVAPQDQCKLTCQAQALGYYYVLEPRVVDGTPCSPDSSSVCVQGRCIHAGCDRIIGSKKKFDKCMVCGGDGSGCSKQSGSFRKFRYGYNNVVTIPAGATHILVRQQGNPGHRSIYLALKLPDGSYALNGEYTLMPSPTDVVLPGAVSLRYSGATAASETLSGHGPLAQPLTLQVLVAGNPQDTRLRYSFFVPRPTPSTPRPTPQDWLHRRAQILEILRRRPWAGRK
# Description: (§2) Human recombinant full-length FLAG-tagged ADAMTS4 and ADAMTS5 were expressed in HEK293T cells (Thermo Fisher Scientific) and purified by anti-FLAG immunoaffinity chromatography as before. Concentrations of active proteases were determined by active-site titrations with known concentrations of TIMP-3 (Bio-Techne, 973-TM-010), using QF peptides as substrates. V1-5GAG, a truncated version of versican V1 isoform comprising residues 21–694 and containing a C-terminal 6x His tag[67], was expressed in HE293T cells and purified by immobilized metal affinity chromatography as before.
# QF peptide cleavage assays were conducted in TNC-B (50 mM Tris–HCl, pH 7.5, 150 mM NaCl, 10 mM CaCl2, and 0.02% NaN3) on a SpectraMax i3x Multi-Mode Platform (Molecular Devices, UK) in a total volume of 20 µl at 37℃ as before. ADAMTS4 (3.5 nM) or ADAMTS5 (4 nM) were incubated with compounds 1–4 (100 µM, diluted in TNC-B from 10 mM DMSO stocks) or DMSO for 1 h at 37 ℃ before addition of QF peptides fluorescein-5(6)-carbonyl-[…]N, N,N0,N0-tetramethyl-6-carboxyrhodamine, and fluorescein-5(6)-carbonyl-Thr-Glu-Ser-Glu - […]N, N,N0,N0-tetramethyl-6-carboxyrhodamine, respectively, each at 40 µM. Fluorescence intensity was recorded with an excitation wavelength of 485 nm and an emission wavelength of 535 nm every min for 2 h, expressed as relative fluorescence units and normalized against a blank containing only buffer and substrate. Fluorescence values were converted into residual activity by fixing as 100% the activity of the reactions containing an equal concentration (v/v) of DMSO instead of compound (DMSO control).
# ADAMTS4 [4] = target: T1, ADAMTS4; test: Versicanase assay (V1-5GAG, versikine sandwich ELISA); type: biochemical; settings: compared to DMSO control
# Description: as §2
# Compounds 1–4 (100 µM) or DMSO were incubated with ADAMTS4 (5 nM) or ADAMTS5 (0.4 nM) for 2 h at 37 °C, before addition of V1-5GAG (50 nM). At each time point, reactions were stopped by addition of ethylenediaminetetraacetic acid and ADAMTS-generated versican fragments (versikine) quantified by sandwich ELISA as before[29],[30],[38] using anti-DPEAAE neoepitope antibody (Life Technologies, PA1-1748 A, 5 µg/ml) and polyclonal anti-versican antibody (Abcam, ab171887, 3 µg/ml). For each reaction, the amount of versikine generated was derived from a standard curve (0–1.56 nM) of V1-5GAG completely digested with ADAMTS5. Initial velocities were calculated from the concentration of versikine generated as a function of reaction time. Percent of inhibition was calculated from the DMSO control reactions. IC50 values were determined using the formula: vi/v0 = 1/(1 + [I]/IC50) where vi is the initial velocity of substrate cleavage in the presence of the inhibitor at concentration [I] and v0 is the initial velocity in the presence of an equal concentration (v/v) of DMSO.
structure (smiles),measurement,setting,value
CC1C(NS(=O)(=O)N2CCc3c(nc4cc(F)ccn34)C2)(C(=O)O)C1(C)c1ccccc1 (centres unmarked) [A],IC50,ADAMTS5,0.0084 µM
"C[C@H]1CN(C(=O)CC[C@@]2(C3CC3)NC(=O)NC2=O)CCN1c1cc(F)cc(F)c1 [B, GLPG 1972]",IC50,ADAMTS5,0.019 µM
COc1cc(/C=C/C(=O)CC(=O)/C=C/c2ccc(O)c(O)c2)ccc1O [CHEMBL103410],EC50,HEK293,36 µM
O=C(/C=C/c1ccccc1)c1ccc(O)cc1O [CHEMBL105310],IC50,HEK293; read-out: IC50 (Standard Value),109 µM
O=C(/C=C/c1ccc(O)cc1)CC(=O)/C=C/c1ccc(O)cc1 [CHEMBL105350],EC50,HEK293,200 µM
C=CCCNc1nc(NCc2csc(-c3cccs3)n2)nc(N2CCC[C@@H]2CNS(=O)(=O)c2ccc(CCC)cc2)n1 [C],IC50,ADAMTS5,0.03 µM
"CNC(=O)[C@H](Cc1c[nH]c2ccccc12)NC(=O)[C@@H](CC(=O)NO)CC(C)C [GM6001, reference compound]",inhibition of cell viability,HEK293T cells,"Neither 2, nor the broad-spectrum zinc-chelating metalloproteinase inhibitor GM6001[40] had an effect on cell viability"
same,inhibition of cell viability,[1],No significant effect
same,decrease of cell viability,[2],did not exhibit cytotoxicity
"CCC(C)N(Cc1cn(CCCCCCO[C@@H]2O[C@H](CO)[C@@H](O)[C@H](O)[C@H]2NC(C)=O)nn1)S(=O)(=O)c1ccc(-c2ccccc2)cc1 (stereo partly drawn) [compound 1, N-((2R,3R,4R,5 S,6R)-2-((6-(4-((N-(sec-butyl)-[1,1’-biphenyl]-4-sulfonamido)methyl)-1H-1,2,3-triazol-1-yl)hexyl)oxy)-4,5-dihydroxy-6-(hydroxymethyl)tetrahydro-2 H-pyran-3-yl)acetamide]",inhibition at 100 µM,ADAMTS4 [3],42%
"CCC(C)N(Cc1cn(CCCO[C@@H]2O[C@H](CO[C@@H]3O[C@H](CO)[C@@H](O[C@@H]4O[C@H](CO)[C@H](O)[C@H](O)[C@H]4O)[C@H](O)[C@H]3O)[C@@H](O)[C@H](O)[C@H]2NC(C)=O)nn1)S(=O)(=O)c1ccc(-c2ccccc2)cc1 (stereo partly drawn) [compound 4, N-((2R,3R,4R,5 S,6R)-2-(3-(4-((N-(sec-butyl)-[1,1’-biphenyl]-4-sulfonamido)methyl)-1 H-1,2,3-triazol-1-yl)propoxy)-6-((((2R,3R,4R,5 S,6R)-3,4-dihydroxy-6-(hydroxymethyl)-5-(((2 S,3R,4 S,5R,6R)-3,4,5-trihydroxy-6-(hydroxymethyl)tetrahydro-2 H-pyran-2-yl)oxy)tetrahydro-2 H-pyran-2-yl)oxy)methyl)-4,5-dihydroxytetrahydro-2 H-pyran-3-yl)acetamide]",inhibition at 100 µM,ADAMTS4 [4],64%
